The text below walks through data of paper PMC9229894, “In Silico, In Vitro, and Pharmacokinetic Studies of UBMC-4, a Potential Novel Compound for Treating against Trypanosoma cruzi” (Pathogens, 2022).

The nature of data set [1]: Cytotoxicity, MTT method, HepG2. In kind it is cell-based. The following applies: human, HepG2 cells, read-out: LC50 median lethal concentration HepG2. As to the method: (§1) Cytotoxicity of UBMC-4 was tested in HepG2, CaCo2, and huMDM cell lines according to the effect on cell growth determined by the MTT microenzimatic method, as described by others. Briefly, 2.0 × 10^4 U-937 and huMDM or 2.5 × 10^4 HepG2 and CaCo2 cells were dispensed in 200 µL into each well of a 96-well tissue culture plate containing the corresponding culture medium. Then, 100 µL/well of each compound at a concentration of […] were added and plates were incubated at 37 °C, 5% CO2. After 72 h of incubation, 20 μL of MTT (Sigma-Aldrich, St Louis, MO, USA) were added to each well and plates were incubated for 3 h at 37 °C, 5% CO2. […] The concentration of formazan was determined at 570 nm in a spectrophotometer (Varioskan Flash Multimode Reader, Thermo Scientific, Waltham, MA, USA). […] Cytotoxicity was determined according to the percentages of viability and cell growth inhibition obtained for each compound, bz, doxorubicin, or medium alone. Non-specific absorbance was corrected by subtracting the OD of the blank (culture medium). Percentages of mortality were calculated using equation, as follows: % mortality = 100 − [(O.D. of treated cells)/(O.D. of non-treated cells)] × 100. The half maximal effective concentration (EC50) was calculated by the linear regression model Probit using Graphpad Prism software.
On the technique in general: Formazan colour is commonly taken as a measure of viable cells.

For data set [2], the system named is intracellular forms of Tulahuen strain. More on the design: method as in Araujo-Lima et al. 2018 [44]. The following applies: ref Araujo-Lima et al. 2018 [44]; read-out: EC50 against intracellular forms of Tulahuen strain; cited from earlier work.
The test system of data set [3] is T. cruzi Tulahuen strain amastigotes. The data set can be described thus: Trypanocidal activity in intracellular amastigotes (β-galactosidase, U937 macrophages). In kind it is cell-based, Trypanosoma cruzi. As to the method: To obtain intracellular amastigotes, 2.5 × 10^6 U937 differentiated macrophage cells were infected with T. cruzi epimastigotes (Tulahuen strain producing β-galactosidase, 24 h of growing) in a 5:1 parasite/cell ratio. To calculate EC50, 100 μL of UBMC-4 were added at four serial dilutions ([…]) to each well, and benznidazole (bz) was added at an initial concentration of 20 µg/mL and 6 serial 2-fold dilutions were used to determine its EC50 as a control of the effectiveness of the experiment, in addition to the control of the viability of the parasites (cells without drug treatment), from the blank of the culture medium (medium without cells), in duplicate. The cells were incubated for 72 h at 37 °C with 5% of CO2. All medium was removed and 100 µL of substrate for β-galactosidase diluted in PBS (chlorophenol β-d-galactopyranoside-CPRG network; Sigma-Aldrich, St Louis, MO, USA, at 100 mM and 0.1% Nonidet P-40) was added to each well and incubated at 37 °C for 3 h. The amount of chlorophenol red released was read at 570 nm in a spectrophotometer (Varioskan TM). Infected cells were used as negative control while infected cells treated with benznidazole were used as a positive control (trypanocidal activity) for the assay. RPMI-1640 medium was used as a negative control. Non-specific absorbance was corrected by subtracting the OD of the blank sample. Determinations were done in triplicate in at least two independent experiments.
The trypanocidal activity was determined based on the percentage of decrease of amastigotes determined using equation, as follows: % reduction of infection = 100 − (O.D. of treated infected cells)/(O.D. of non-treated infected cells) × 100. The half maximal effective concentration (EC50) was calculated by the linear regression model Probit using Graphpad Prism software.

Data set [4] is described as follows: Cytotoxicity, MTT method, CaCo2. In kind it is cell-based. Conditions: human, Caco-2, read-out: LC50 median lethal concentration CaCo2. As to the method:
as §1

A short description of data set [5]: Cytotoxicity, MTT method, huMDM. The data set is classed as cell-based. The following applies: human, monocyte-derived macrophages (huMDM), read-out: LC50 median lethal concentration huMDM. As for the experimental part:
as §1

The test system of the next data set is T. cruzi trypomastigotes. Kind of data set: Flow cytometry of apoptosis-like markers in trypomastigotes. The data set is classed as cell-based, Trypanosoma cruzi. Conditions: 10 µM. As for the experimental part: Apoptosis-like markers were analyzed by triple staining using 3,3′-dihexyloxacarbocyanine (DiOC6), propidium iodide (PI), and Hoechst from Thermo Fisher Scientific to determine the change of mitochondrial membrane potential (ΔΨm), cell membrane damage, and impairment of cell cycle, respectively. All readings were performed on a BD FACSCanto II 4/2/2 Sys IVD flow cytometer, and data obtained were analyzed using the FlowJo7.6.2 software. Differences between treatments were determined by a two-way ANOVA for multiple comparisons with 95% significance using GraphPad Prism 8. In all cases, 20 µL of parasites (5 × 10^6/mL) were stained per treatment with 300 µL of Hanks’ balanced saline solution (HBSS) and 10 µL of the staining mix containing […], 0.5 µL of 70 nM DiOC6, and 0.5 µL of 10 mg/mL Hoechst. Subsequently, parasites were incubated at room temperature for 15 min until reading.
The same markers mentioned above were used for T. cruzi trypomastigotes. A total of 1 × 10^6 trypomastigotes were centrifuged at 1800 RCF for 5 min to remove the culture medium. Parasites were cultured at […] in PBS or 10% FBS-supplemented DMEM with or without 10 µM UBMC-4, 10 µM chloroquine, and 10 µM UBMC-4/chloroquine for 2 h and 5 h. All experiments were compared to a culture setup using bz as control compound. Three biological replicates and three experimental replicates were applied to data collected at each time point for experimental conduction of every portion of the study. In all cases, ANOVA was applied for multiple comparisons after determining that data were normal.
In general terms: In flow cytometry, cells or beads pass a laser one at a time.

The structures appear in SMILES notation.

Regarding `O=C(Cn1ccnc1[N+](=O)[O-])NCc1ccccc1` [Benznidazole, benznidazole, reference compound], the CC50 at 72 h in data set [1], in data set [4] and in data set [5] was > 760000 nM each time. The EC50 was 1800 ± 700 nM in data set [2] and 1160 ± 30 nM in data set [3] (Trypanosoma cruzi, TULAHUEN, U-937, 72 h, read-out: EC50 half maximal effective concentration for T. cruzi amastigotes). The “selectivity index (SI) between huMDM and T. cruzi amastigotes” value in data set [3] (LC50 huMDM / EC50 amastigotes) was > 655.

Consider `CCN(CC)CCCC(C)Nc1ccnc2cc(Cl)ccc12` (centres unmarked) [chloroquine, reference compound], for which the “mitochondrial membrane potential change” value in the data set with T. cruzi trypomastigotes (normal nutrition conditions) is “no alteration in the mitochondrial membrane potential”; in the data set with T. cruzi trypomastigotes (nutritional stress conditions), “hyperpolarization continued just as in the untreated controls”.
